ChEMBL document CHEMBL4725363 (J Med Chem, 2020)
The source made the active and inactive calls. The rule behind the calls is not given here.

What was measured:
[1] = Tmax in Sprague-Dawley rat at 2.5 mg/kg, iv after 24 hrs by LC-MS/MS analysis; format: ADME, organism-based; conditions: in vivo
[2] = Oral bioavailability in Sprague-Dawley rat at 5 mg/kg after 24 hrs by LC-MS/MS analysis; format: ADME, organism-based; conditions: in vivo
[3] = Tmax in Sprague-Dawley rat at 5 mg/kg, po after 24 hrs by LC-MS/MS analysis; format: ADME, organism-based; conditions: in vivo
[4] = target: cGMP-specific 3',5'-cyclic phosphodiesterase (Homo sapiens, UniProt O76074); experiment: Inhibition of human PDE5A1 (535-860 residues) expressed in Escherichia coli BL21 incubated for 15 mins using [3H]-cGMP as substrate by liquid scintillation counting method
[5] = MRT (0 to t) in Sprague-Dawley rat at 5 mg/kg, po after 24 hrs by LC-MS/MS analysis; format: ADME, organism-based; conditions: in vivo
[6] = target: T1, DNA topoisomerase 1 (Homo sapiens) (UniProt P11387); experiment: Inhibition of Top (unknown origin) mediated supercoiled DNA relaxation at 100 uM
T1 sequence (whole entry): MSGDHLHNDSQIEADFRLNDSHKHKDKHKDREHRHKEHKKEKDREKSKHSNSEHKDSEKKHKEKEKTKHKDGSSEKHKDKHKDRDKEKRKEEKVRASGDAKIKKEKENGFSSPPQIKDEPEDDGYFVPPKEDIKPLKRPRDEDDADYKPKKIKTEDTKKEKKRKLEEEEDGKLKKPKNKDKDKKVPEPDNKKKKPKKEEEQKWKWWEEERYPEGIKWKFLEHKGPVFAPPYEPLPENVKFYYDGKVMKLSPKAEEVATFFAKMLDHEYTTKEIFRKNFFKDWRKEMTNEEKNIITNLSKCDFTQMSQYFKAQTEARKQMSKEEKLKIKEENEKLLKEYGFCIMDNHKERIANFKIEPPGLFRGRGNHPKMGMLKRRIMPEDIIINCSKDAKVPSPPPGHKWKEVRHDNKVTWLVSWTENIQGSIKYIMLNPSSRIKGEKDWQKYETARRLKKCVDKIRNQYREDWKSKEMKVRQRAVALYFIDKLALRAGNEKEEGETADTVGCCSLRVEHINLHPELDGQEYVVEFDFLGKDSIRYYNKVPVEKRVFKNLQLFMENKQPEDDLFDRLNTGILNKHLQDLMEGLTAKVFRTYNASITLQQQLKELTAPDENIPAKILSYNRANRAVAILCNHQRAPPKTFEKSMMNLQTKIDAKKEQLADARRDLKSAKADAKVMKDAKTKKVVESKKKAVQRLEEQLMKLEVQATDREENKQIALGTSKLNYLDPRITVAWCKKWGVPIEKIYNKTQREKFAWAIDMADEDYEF

COc1ccc2c3c([nH]c2c1)[C@@H]1N(CC3)C(=O)c2c(OC)cccc2N1C
Tmax [1]: 4.98 min | bioavailability [2]: 14% | Tmax [3]: 49.8 min | IC50 [4]: 42 nM | MRT last at 24 h [5]: 191 min | inhibition [6]: inactive
